Reference: patent US20140066657A1, “DOSAGE REGIMEN FOR A S1P RECEPTOR AGONIST” (Novartis AG, priority 2008, published 2014)

Legend:
healthy subjects [1] = conditions: administration of 1.25 mg; cited from earlier work
healthy subjects [2] = assay: Double-blind, placebo-controlled dose titration clinical study; heart rate by continuous telemetry and Holter; type: in vivo, human
Method: A single-center, double-blind, placebo-controlled, dose titration, once-daily, multiple-oral-dose clinical study in healthy subjects was conducted to evaluate the effect of a dosage regimen of FTY720 according to the present invention. A total of 36 subjects were randomly assigned to one of the three groups. Each subject participated in a screening period of maximal 21 days, a baseline period (Day −1), a 9-day dose-administration period, and clinical study completion assessments on Day 10. Subjects were assigned to one of the three groups (dose titration regimen group, placebo Control group, or active control group) and received the once daily dose in a double-blinded manner (Table 1). In the dose titration group, increasing once daily doses of Compound A (FTY720), starting at 0.125 mg o.d. and ending at the maximal therapeutic dose of 1.25 mg o.d. were administered on days 1 to 9 of the study according to the schedule shown in Table 1 below. The placebo control group received placebo through out the duration of the study and the active control group received a once daily dose of 1.25 mg of FTY720 on days 1 to 9. [table] On Day −1 (baseline), subjects will undergo baseline assessments including 24 hour holter monitoring and telemetry assessments. Pharmacodynamic and safety assessments are performed up to 24 hours post last dose. Heart rate is monitored via telemetry on Day −1 through Day 10, 24 hour after the last dosing. Heart rhythm is assessed via 24 hr continuous holter monitoring on Day −1, Day 1, and Day 9. For each dosing for each subject, the drug is administered as closely as practically possible to the time administered on Day −1. Safety assessments includes physical examinations, vital signs and body measurements, 12-lead ECG evaluations, standard clinical laboratory evaluations hematology, blood chemistry, urinalysis, adverse event and serious adverse event monitoring. Systolic and diastolic blood pressure and pulse are measured after the subject has rested quietly in the sitting position for at least 3 minutes. Blood pressure is measured at the same arm on each occasion. Standard 12-lead ECGs are recorded at Screening, baseline, 4 hours post-dose on Day 1 and Day 8, and at Study Completion. The variables recorded are: date and time of ECG, heart rate. PR interval, QT interval (uncorrected), QTcB, QRS duration. The overall interpretation is collected with a Yes/No statement to confirm if any clinically relevant abnormalities are present, which needs to be specified further. Subjects remain on continuous telemetry, starting before breakfast on Day −1 and proceeding throughout the administration period up to Day 10 (24 hour after the last dose). Over this ten day duration of continuous heart rate collection for each subject, one heart rate value is obtained every minute (‘minute unit heart rate’), representing the average heart rate value over that minute. The heart rate database for each subject contains approximately 14,400 data points (10 days×24 hr×60 min). 24-hour continuous Holter-ECG data are captured via a digital Holter monitor (12-lead, on Days −1, 1, 6, and 8), and transferred for interpretation and reporting. Hotter monitoring starts approximately at 7:00 and the time of dose administration is regarded as the time “0 hours'. Holter “cuts” are derived from the dataset at 1 hour intervals starting from Day −1 and continuing for 24 hours or the end of the cleaned Hotter monitoring dataset. Cardiac conduction intervals: arrhythmia monitoring includes the frequency and duration of sinus pauses (>2 sec and >3 sec) and atrio-ventricular blocks. Frequency and duration of atrial and ventricular ectopy and sinus rhythm are also recorded. The daily chronotropic effect is defined as the percent decrease in HRmin (minimum heart rate) between two consecutive days. It is calculated on days 1 to 9.

multiple sclerosis = conditions: humans; Mehling et al. 2008, Kappos et al. 2006; cited from earlier work
[3] = FTY720 1.25 mg once daily treatment group (active control), oral, healthy subjects

CCCCCCCCc1ccc(CCC(N)(CO)CO)cc1.Cl [FTY720, 2-amino-2-[2-(4-octylphenyl)ethyl]propane-1,3-diol]
decrease in heart rate (healthy subjects [1]): approximately 8 beats/min (BPM) | additional decrease in heart rate (daily average) from Day 1 to Day 2 (healthy subjects [2]; [3]): approximately 3 BPM | decrease in heart rate (daily average) from Day -1 to Day 1 (healthy subjects [2]; [3]): approximately 8 BPM | gradual decrease in heart rate per day (healthy subjects [2]; FTY720 titration group (0.125/0.25/0.5/1.25 mg o.d.), over the eight day course of the dose titration): 1-2 BPM per day | dip in heart rate on initiation of 1.25 mg compared to the preceding days (healthy subjects [2]; FTY720 titration group, initiation of 1.25 mg on Day 8): does not result in dip in heart rate | daily minimum heart rates during the course of the study (healthy subjects [2]; dose titration regimen compared with the FTY720 1.25 mg group): improved daily minimum heart rates | negative chronotropic effect seen on Day 1 of treatment initiation (healthy subjects [2]; dose titration regimen versus 1.25 mg o.d. from Day 1): attenuates the negative chronotropic effect | efficacy in the treatment of multiple sclerosis (multiple sclerosis): has been demonstrated in humans
